Measurements reported in ChEMBL document CHEMBL1140639, “Leuconoxine, kopsinitarine, kopsijasmine, and kopsinone derivatives from Kopsia” (J Nat Prod, 2007).

Legend:
Type in all cases: functional, cell-based
[1] = Cytotoxicity against human multidrug-resistant KB/VJ300 cells in presence of 0.12 uM vincristine
KB = assay: Cytotoxicity against human KB cells
[2] = Cytotoxicity against human KB/VJ300 cells

| SMILES | IC50 [1] [µM] | IC50 (KB) [µM] | IC50 [2] [µM] |
| --- | --- | --- | --- |
| COC(=O)C1=C[C@@]23CCCN4CC[C@@]5(c6ccccc6N[C@]15CC2)[C@@H]43 [KOPSIJASMININE] | 38.7 |  |  |
| CC[C@]1(O)C[C@H]2CN(CCc3c([nH]c4ccccc34)[C@@](C(=O)OC)(c3cc4c(cc3OC)N(C=O)[C@H]3[C@@](O)(C(=O)OC)[C@H](OC(C)=O)[C@]5(CC)C=CCN6CC[C@]43[C@@H]65)C2)C1 [VINCRISTINE] |  | 0.0167 | 1.33 |
